{"source": "patent US4201783A", "about": "“Antidepressant substituted hexahydro benzopyrano [3,2-c] pyridines” (Lipha Lyonnaise Industrielle Pharmaceutique, priority 1977, dated 1980)", "key": {"[1]": {"test_system": "ptosis with reserpine", "test": "inhibition of reserpine ptosis in Swiss mice (B. Rubin et al.)", "assay_type": "in vivo", "conditions": "simultaneously with reserpine 5 mg/kg intraperitoneally, ptosis measured at 1, 1.5 and 2 hours; for ED50: Mus musculus, po, read-out: ED50 (dose inhibiting reserpine ptosis by an average of 50%); for ED50 (dose inhibiting reserpine ptosis by an average of 50%): oral", "procedure": "This mood-altering activity can be determined by standard, routine tests well known specialists. […] In Swiss mice, a compound was administered orally simultaneously with reserpine given interperitoneally at a dose of 5 mg/kg. Ptosis measured according to B. Rubin et al. (J. Pharmacol. Exp. […] (3-dimethylamino propylidene-5-dibenzo [a,d] 1,4-cycloheptadiene hydrochloride)."}, "[2]": {"test": "in vivo", "conditions": "mouse, po"}, "[3]": {"test_system": "Swiss mice", "conditions": "oral"}, "[4]": {"test": "clinical test of the medication containing the active compound of Example 5 A", "assay_type": "in vivo, human", "text": "The following are observations recorded during a clinical test of the medication containing the active compound of Example 5 A."}, "[5]": {"conditions": "LD50, administered orally, Swiss mice"}, "[6]": {"conditions": "Case No. 1, 5 mg daily for 30 days"}, "[7]": {"conditions": "Case No. 2, 20 mg daily for 30 days"}, "[8]": {"conditions": "Case No. 3, 10 mg daily for 20 days"}, "[9]": {"conditions": "Case No. 4, 25 mg daily for 45 days"}, "[10]": {"conditions": "Case No. 5, 5 mg daily for 30 days"}, "[11]": {"conditions": "Case No. 6, 25 mg daily for 30 days"}}, "note": "Counter-ions that a name gives are not always drawn."}
{"smiles": "CN1CCC23Oc4ccc(Cl)cc4C(CC(=O)N2C)C3C1", "note": "(centres unmarked) [Example 36, 8-chloro-2-methyl-4a-methylamino-1,2,3,4,4a,10a-hexahydro[10 H]benzopyrano[3,2-c]pyrid-10-ylacetic acid lactam]", "values": [{"measurement": "ED50", "setting": "[1]", "result": 0.7, "unit": "mg/kg"}, {"measurement": "LD50", "setting": "[2]; [5]", "result": 600, "unit": "mg/kg"}]}
{"smiles": "CN1CCC23NC(=O)CC(c4ccccc4O2)C3C1", "note": "(single isomer, unassigned) [Example 1 A, 4a-amino-2-methyl-1,2,3,4,4a,10a-hexahydro [10 H] benzopyrano-[3,2-c]pyrid-10-yl acetic acid lactam]", "values": [{"measurement": "ED50 (dose inhibiting reserpine ptosis by an average of 50%)", "setting": "[1]", "result": 6, "unit": "mg/kg"}, {"measurement": "LD50, administered orally", "setting": "[3]", "result": "2,700 mg/kg"}]}
{"smiles": "CN1CCC23NC(=O)CC(c4ccccc4O2)C3C1", "note": "(single isomer, unassigned) [Example 1 B, 4a-amino-2-methyl-1,2,3,4,4a,10a-hexahydro [10 H] benzopyrano-[3,2-c]pyrid-10-yl acetic acid lactam]", "values": [{"measurement": "ED50 (dose inhibiting reserpine ptosis by an average of 50%)", "setting": "[1]", "result": 24, "unit": "mg/kg"}, {"measurement": "LD50, administered orally", "setting": "[3]", "result": 600, "unit": "mg/kg"}]}
{"smiles": "CN1CCC23NC(=O)CC(c4cc(F)ccc4O2)C3C1", "note": "(centres unmarked) [Example 8, 4a-amino-8-fluoro-2-methyl-1,2,3,4,4a,10a-hexahydro[10 H]benzopyrano[3,2-c]pyrid-10-ylacetic acid lactam]", "values": [{"measurement": "ED50", "setting": "[1]", "result": 1, "unit": "mg/kg"}, {"measurement": "LD50", "setting": "[2]; [5]", "result": 1080, "unit": "mg/kg"}]}
{"smiles": "CN1CCC23NC(=O)CC(c4c(ccc5ccccc45)O2)C3C1", "note": "(centres unmarked) [Example 10, 7a-amino-10-methyl-7a,8,9,10,11,11a-hexahydro[12 H]benzo[f]benzopyrano[3,2-c]pyrid-12-ylacetic acid lactam]", "values": [{"measurement": "ED50", "setting": "[1]", "result": 1.8, "unit": "mg/kg"}, {"measurement": "LD50", "setting": "[2]; [5]", "result": 600, "unit": "mg/kg"}]}
{"smiles": "CCOC(=O)N1CCC23NC(=O)CC(c4cc(Cl)ccc4O2)C3C1", "note": "(centres unmarked) [Example 27, 4a-amino-8-chloro-2-ethoxycarbonyl-1,2,3,4,4a,10a-hexahydro[10 H]benzopyrano[3,2-c]pyrid-10-ylacetic acid lactam]", "values": [{"measurement": "ED50", "setting": "[1]", "result": 0.37, "unit": "mg/kg"}, {"measurement": "LD50", "setting": "[2]", "result": "> 1600", "unit": "mg/kg"}]}
{"smiles": "COC(=O)N1CCC23NC(=O)CC(c4cc(Cl)ccc4O2)C3C1", "note": "(centres unmarked) [Example 28, 4a-amino-8-chloro-2-methoxycarbonyl-1,2,3,4,4a,10a-hexahydro[10 H]benzopyrano[3,2-c]pyrid-10-ylacetic acid lactam]", "values": [{"measurement": "ED50", "setting": "[1]", "result": 0.25, "unit": "mg/kg"}, {"measurement": "LD50", "setting": "[2]", "result": 1100, "unit": "mg/kg"}]}
{"smiles": "CN(C)CCC=C1c2ccccc2CCc2ccccc21", "note": "[Amitriphthyline, 3-dimethylamino propylidene-5-dibenzo [a,d] 1,4-cycloheptadiene hydrochloride, reference compound]", "values": [{"measurement": "ED50", "setting": "[1]", "result": 10, "unit": "mg/kg"}, {"measurement": "LD50", "setting": "[2]", "result": 150, "unit": "mg/kg"}]}
{"smiles": "CC(=O)N1CCC23NC(=O)CC(c4ccccc4O2)C3C1", "note": "(centres unmarked) [Example 9, 4a-amino-2-acetyl-1,2,3,4,4a,10a-hexahydro[10 H]benzopyrano[3,2-c]pyrid-10-ylacetic acid lactam]", "values": [{"measurement": "ED50", "setting": "[1]", "result": 5, "unit": "mg/kg"}, {"measurement": "LD50", "setting": "[2]; [5]", "result": "> 3200", "unit": "mg/kg"}]}
{"smiles": "CN1CCC23NC(=O)CC(c4cc([N+](=O)[O-])ccc4O2)C3C1", "note": "(centres unmarked) [Example 15, 4a-amino-8-nitro-2-methyl-1,2,3,4,4a,10a-hexahydro[10 H]benzopyrano[3,2-c]pyrid-10-ylacetic acid lactam]", "values": [{"measurement": "ED50", "setting": "[1]", "result": 0.6, "unit": "mg/kg"}, {"measurement": "LD50", "setting": "[2]; [5]", "result": 2470, "unit": "mg/kg"}]}
{"smiles": "CN1CCC23NC(=O)CC(c4cc(Cl)ccc4O2)C3C1", "note": "(single isomer, unassigned) [Example 5 A, 4a-amino-8-chloro-2-methyl-1,2,3,4,4a,10a-hexahydro[10 H]benzopyrano[3,2c]pyrid-10-ylacetic acid lactam]", "values": [{"measurement": "ED50 (dose inhibiting reserpine ptosis by an average of 50%)", "setting": "[1]", "result": 0.04, "unit": "mg/kg"}, {"measurement": "Activity", "setting": "[4]; Case No. 1, pre-senile depression, 5 mg daily for 30 days, with NOZINAN-SUREPTIL", "result": "Weight gain. Improvement of mood and sociability."}, {"measurement": "Tolerance, biological", "setting": "[4]; [6]", "result": "N.A.D."}, {"measurement": "Tolerance, clinical", "setting": "[4]; [6]", "result": "N.A.D."}, {"measurement": "Activity", "setting": "[4]; Case No. 2, post-neuroleptic depression with schizophrenia, 20 mg daily for 30 days, with NOZINAN-ARTANE-GARDENAL", "result": "Weight gain. Improvement of mood and sleep. Reduced anxiety. Relief of hypochondriac complaints."}, {"measurement": "Tolerance, biological", "setting": "[4]; [7]", "result": "N.A.D."}, {"measurement": "Tolerance, clinical", "setting": "[4]; [7]", "result": "N.A.D."}, {"measurement": "Activity", "setting": "[4]; Case No. 3, serious hypochondriac depressive syndrome, 10 mg daily for 20 days, with MEPRONIZINE", "result": "The patient was less preoccupied with their body. Decrease of compulsive washing. Improvement of social behavior."}, {"measurement": "Tolerance, biological", "setting": "[4]; [8]", "result": "N.A.D."}, {"measurement": "Tolerance, clinical", "setting": "[4]; [8]", "result": "N.A.D."}, {"measurement": "Activity", "setting": "[4]; Case No. 4, melancholic depressive relapse, 25 mg daily for 45 days, with NOZINAN 25 mg", "result": "Improvement of mood. Less pessimistic attitude. Less frequent crying. Less pronounced feeling of guilt."}, {"measurement": "Tolerance, biological", "setting": "[4]; [9]", "result": "N.A.D."}, {"measurement": "Tolerance, clinical", "setting": "[4]; [9]", "result": "N.A.D."}, {"measurement": "Activity", "setting": "[4]; Case No. 5, depressive syndrome in an alcoholic of the melancholic type, 5 mg daily for 30 days, with vitamins, NOZINAN (50 mg), ARTANE 5", "result": "Improvement of mood. Less frequent crying. Improved appetite."}, {"measurement": "Tolerance, biological", "setting": "[4]; [10]", "result": "N.A.D."}, {"measurement": "Tolerance, clinical", "setting": "[4]; [10]", "result": "slight dizziness and nausea"}, {"measurement": "Activity", "setting": "[4]; Case No. 6, hypochondriac delirium with anxiety, 25 mg daily for 30 days, with ARTANE 10 mg […]", "result": "Decrease of hypochondriac complaints. Patient less irritable and apprehensive."}, {"measurement": "Tolerance, biological", "setting": "[4]; [11]", "result": "N.A.D."}, {"measurement": "Tolerance, clinical", "setting": "[4]; [11]", "result": "slight vertigo"}]}
{"smiles": "CN1CCC23NC(=O)CC(c4cc(Br)ccc4O2)C3C1", "note": "(centres unmarked) [Example 6, 4a-amino-8-bromo-2-methyl-1,2,3,4,4a,10a-hexahydro[10 H]benzopyrano[3,2-c]pyrid-10-ylacetic acid lactam]", "values": [{"measurement": "ED50", "setting": "[1]", "result": 0.1, "unit": "mg/kg"}, {"measurement": "LD50", "setting": "[2]; [5]", "result": 720, "unit": "mg/kg"}]}
{"smiles": "Cc1ccc2c(c1)C1CC(=O)NC3(CCN(C)CC13)O2", "note": "(centres unmarked) [Example 7, 4a-amino-28-dimethyl-1,2,3,4,4a,10a-hexahydro[10 H]benzopyrano[3,2-c]pyrid-10-ylacetic acid lactam]", "values": [{"measurement": "ED50", "setting": "[1]", "result": 3.5, "unit": "mg/kg"}, {"measurement": "LD50", "setting": "[2]; [5]", "result": 1200, "unit": "mg/kg"}]}
{"smiles": "COc1ccc2c(c1)C1CC(=O)NC3(CCN(C)CC13)O2", "note": "(single isomer, unassigned) [Example 18, 4a-amino-8-methoxy-2-methyl-1,2,3,4,4a,10a-hexahydro[10 H]benzopyrano[3,2-c]pyrid-10-ylacetic acid lactam]", "values": [{"measurement": "ED50", "setting": "[1]", "result": 0.67, "unit": "mg/kg"}, {"measurement": "LD50", "setting": "[2]; [5]", "result": 1200, "unit": "mg/kg"}]}
{"smiles": "CN(C)CCCN1c2ccccc2CCc2ccccc21", "note": "[Imipramine, N-(3-dimethylaminopropyl) iminodibenzyl hydrochloride, reference compound]", "values": [{"measurement": "ED50", "setting": "[1]", "result": 2.9, "unit": "mg/kg"}]}
{"smiles": "CN1CCC23NC(=O)CC(c4cc(Cl)ccc4O2)C3C1", "note": "(single isomer, unassigned) [Example 5 B, 4a-amino-8-chloro-2-methyl-1,2,3,4,4a,10a-hexahydro[10 H]benzopyrano[3,2c]pyrid-10-ylacetic acid lactam]", "values": [{"measurement": "ED50 (dose inhibiting reserpine ptosis by an average of 50%)", "setting": "[1]", "result": 11, "unit": "mg/kg"}]}
